Measurements: ChEMBL document CHEMBL4052662, “Synthesis, docking study and neuroprotective effects of some novel pyrano[3,2-c]chromene derivatives bearing morpholine/phenylpiperazine moiety” (Bioorg Med Chem, 2017)

Key:
Acetylcholinesterase [1] = biological target: T1, Acetylcholinesterase (Electrophorus electricus, UniProt O42275); assay: Inhibition of electric eel AChE using acetylthiocholine iodide as substrate measured for 6 mins by Ellman's method
Cholinesterase = Cholinesterase (Equus caballus, UniProt P81908); assay: Inhibition of equine serum BuChE using butyrylthiocholine iodide as substrate measured for 6 mins by Ellman's method
Chain of Cholinesterase (P81908 whole entry): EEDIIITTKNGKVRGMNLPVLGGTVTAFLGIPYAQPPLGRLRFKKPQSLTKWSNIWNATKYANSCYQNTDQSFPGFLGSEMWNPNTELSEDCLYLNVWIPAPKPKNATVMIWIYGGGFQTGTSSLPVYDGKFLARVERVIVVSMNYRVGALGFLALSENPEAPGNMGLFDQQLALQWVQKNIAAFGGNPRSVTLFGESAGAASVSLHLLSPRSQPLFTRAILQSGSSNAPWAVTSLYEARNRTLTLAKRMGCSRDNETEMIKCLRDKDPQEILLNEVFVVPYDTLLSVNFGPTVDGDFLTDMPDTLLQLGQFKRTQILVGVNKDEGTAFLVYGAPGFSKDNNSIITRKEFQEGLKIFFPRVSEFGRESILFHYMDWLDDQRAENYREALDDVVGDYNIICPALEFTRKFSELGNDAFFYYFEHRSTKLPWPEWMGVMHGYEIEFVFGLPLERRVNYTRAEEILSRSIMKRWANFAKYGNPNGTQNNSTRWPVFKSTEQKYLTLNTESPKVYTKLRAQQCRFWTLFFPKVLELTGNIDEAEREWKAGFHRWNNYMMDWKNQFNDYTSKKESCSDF

[2] = biological target: Beta-secretase 1 (Homo sapiens) (UniProt P56817); assay: Inhibition of human BACE1 using Rh-EVNLDAEFK-quencher as substrate measured after 60 mins by FRET assay
Chain of Beta-secretase 1 (Homo sapiens) (P56817 whole entry): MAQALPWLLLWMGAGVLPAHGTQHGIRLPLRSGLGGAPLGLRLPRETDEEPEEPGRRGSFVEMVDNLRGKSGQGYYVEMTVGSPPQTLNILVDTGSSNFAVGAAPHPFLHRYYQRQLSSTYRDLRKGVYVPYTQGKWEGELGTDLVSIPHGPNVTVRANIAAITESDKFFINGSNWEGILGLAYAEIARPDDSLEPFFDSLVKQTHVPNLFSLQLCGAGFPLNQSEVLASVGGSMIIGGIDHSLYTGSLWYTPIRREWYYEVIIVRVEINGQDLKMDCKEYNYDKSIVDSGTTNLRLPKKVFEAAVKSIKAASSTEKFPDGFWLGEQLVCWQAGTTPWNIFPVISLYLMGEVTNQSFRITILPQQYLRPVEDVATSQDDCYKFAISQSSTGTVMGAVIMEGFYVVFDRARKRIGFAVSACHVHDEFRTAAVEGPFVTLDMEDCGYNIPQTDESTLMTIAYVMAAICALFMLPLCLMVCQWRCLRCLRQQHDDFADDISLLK

PC-12 = assay: Neuroprotective activity against H2O2-induced cell death in rat PC12 cells assessed as cell viability 10 uM pretreated for three hours followed by H2O2 induction after 12 hrs by MTT assay relative to control; assay type: functional
[3] = Selectivity index, ratio of IC50 for equine serum BuChE to IC50 for electric eel AChE
Acetylcholinesterase [4] = biological target: T1, Acetylcholinesterase; assay: Mixed-type inhibition of electric eel AChE using varying levels of acetylthiocholine iodide as substrate measured for 2 mins by Lineweaver-Burk plot analysis

T1 sequence (O42275 whole entry): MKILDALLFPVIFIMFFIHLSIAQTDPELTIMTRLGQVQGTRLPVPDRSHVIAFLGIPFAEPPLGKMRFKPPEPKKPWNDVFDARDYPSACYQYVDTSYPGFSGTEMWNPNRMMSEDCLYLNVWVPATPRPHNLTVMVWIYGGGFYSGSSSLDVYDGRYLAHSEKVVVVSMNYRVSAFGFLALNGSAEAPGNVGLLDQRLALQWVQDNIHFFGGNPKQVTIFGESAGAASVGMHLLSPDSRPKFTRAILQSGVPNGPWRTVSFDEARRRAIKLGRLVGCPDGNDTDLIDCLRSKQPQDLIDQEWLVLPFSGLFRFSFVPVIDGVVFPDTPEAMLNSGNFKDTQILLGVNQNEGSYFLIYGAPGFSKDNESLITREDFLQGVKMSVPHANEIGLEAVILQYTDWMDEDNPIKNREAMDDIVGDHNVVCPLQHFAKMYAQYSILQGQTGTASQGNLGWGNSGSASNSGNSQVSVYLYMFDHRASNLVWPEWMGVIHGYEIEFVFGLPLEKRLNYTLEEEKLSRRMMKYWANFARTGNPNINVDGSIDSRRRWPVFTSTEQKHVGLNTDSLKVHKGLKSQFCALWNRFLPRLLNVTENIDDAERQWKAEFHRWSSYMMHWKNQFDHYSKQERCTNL

With `Cc1ccc(C2C(C#N)=C(NC(=O)CN3CCN(c4ccccc4)CC3)Oc3c2c(=O)oc2ccccc32)c(C)c1` (configuration not stated) the IC50 (Acetylcholinesterase [1]; read-out: IC50) was 32.9 µM and the IC50 (Cholinesterase; read-out: IC50) was > 100 µM.

Work on `COc1ccc(C2C(C#N)=C(NC(=O)CN3CCN(c4ccccc4)CC3)Oc3c2c(=O)oc2ccccc32)cc1` (configuration not stated) yielded an inhibition [2] of 18%, an Activity (PC-12) of 84.7% and a Ratio IC50 [3] of 40.8. For the same compound, the Ki (Acetylcholinesterase [4]) was 3.19 µM, the IC50 (Acetylcholinesterase [1]; read-out: IC50) was 1.12 µM and the IC50 (Cholinesterase; read-out: IC50) was 45.7 µM.

For `COc1ccc(C2C(C#N)=C(NC(=O)CN3CCOCC3)Oc3c2c(=O)oc2ccccc32)cc1` (configuration not stated), the Activity (PC-12) was 78.5%, the Ratio IC50 [3] was 31.1 and the IC50 (Acetylcholinesterase [1]; read-out: IC50) was 2.05 µM. The IC50 (Cholinesterase; read-out: IC50) was 63.8 µM.

With `N#CC1=C(NC(=O)CN2CCOCC2)Oc2c(c(=O)oc3ccccc23)C1c1ccc([N+](=O)[O-])cc1` (configuration not stated) the IC50 (Acetylcholinesterase [1]; read-out: IC50) was > 100 µM and the IC50 (Cholinesterase; read-out: IC50) was > 100 µM.

`N#CC1=C(NC(=O)CN2CCOCC2)Oc2c(c(=O)oc3ccccc23)C1c1ccc(Cl)cc1` (configuration not stated) gave a Ratio IC50 [3] of 6.3, an IC50 (Acetylcholinesterase [1]; read-out: IC50) of 14.6 µM and an IC50 (Cholinesterase; read-out: IC50) of 91.5 µM.

In the case of `N#CC1=C(NC(=O)CN2CCN(c3ccccc3)CC2)Oc2c(c(=O)oc3ccccc23)C1c1ccc([N+](=O)[O-])cc1` (configuration not stated), the IC50 (Acetylcholinesterase [1]) is reported as “Nd(Insoluble)” and the IC50 (Cholinesterase) is reported as “Nd(Insoluble)”.

In the case of `N#CC1=C(NC(=O)CN2CCOCC2)Oc2c(c(=O)oc3ccccc23)C1c1cccs1` (configuration not stated), the IC50 (Acetylcholinesterase [1]; read-out: IC50) is reported as > 100 µM and the IC50 (Cholinesterase; read-out: IC50) is reported as > 100 µM.

With `COc1ccc(C2C(C#N)=C(NC(=O)CN3CCOCC3)Oc3c2c(=O)oc2ccccc32)cc1OC` (configuration not stated) the Activity (PC-12) was 84.7%, the Ratio IC50 [3] was 10.5 and the IC50 (Acetylcholinesterase [1]; read-out: IC50) was 3.25 µM. The IC50 (Cholinesterase; read-out: IC50) was 34.2 µM.

With `N#CC1=C(NC(=O)CN2CCN(c3ccccc3)CC2)Oc2c(c(=O)oc3ccccc23)C1c1ccc(Cl)cc1` (configuration not stated) the Activity (PC-12) was 75%, the Ratio IC50 [3] was 14.1 and the IC50 (Acetylcholinesterase [1]; read-out: IC50) was 6.33 µM. For the same compound, the IC50 (Cholinesterase; read-out: IC50) was 89.2 µM.

For `N#CC1=C(NC(=O)CN2CCOCC2)Oc2c(c(=O)oc3ccccc23)C1c1ccc(F)cc1` (configuration not stated), the IC50 (Acetylcholinesterase [1]; read-out: IC50) was > 100 µM and the IC50 (Cholinesterase; read-out: IC50) was > 100 µM.

`N#CC1=C(NC(=O)CN2CCN(c3ccccc3)CC2)Oc2c(c(=O)oc3ccccc23)C1c1ccccc1` (configuration not stated) gave a Ratio IC50 [3] of 4.5, an IC50 (Acetylcholinesterase [1]; read-out: IC50) of 11.5 µM and an IC50 (Cholinesterase; read-out: IC50) of 52.3 µM.

`COc1ccc(C2C(C#N)=C(NC(=O)CN3CCN(c4ccccc4)CC3)Oc3c2c(=O)oc2ccccc32)cc1OC` (configuration not stated) gave an Activity (PC-12) of 76%, a Ratio IC50 [3] of 41 and an IC50 (Acetylcholinesterase [1]; read-out: IC50) of 1.42 µM. It also gave an IC50 (Cholinesterase; read-out: IC50) of 58.2 µM.

In the case of `COc1ccc(C2C(C#N)=C(NC(=O)CN3CCOCC3)Oc3c2c(=O)oc2ccccc32)c(OC)c1` (configuration not stated), the IC50 (Acetylcholinesterase [1]; read-out: IC50) is reported as 25.6 µM and the IC50 (Cholinesterase; read-out: IC50) is reported as > 100 µM.

For `N#CC1=C(NC(=O)CN2CCN(c3ccccc3)CC2)Oc2c(c(=O)oc3ccccc23)C1c1ccc(F)cc1` (configuration not stated), the IC50 (Acetylcholinesterase [1]) was “Nd(Insoluble)” and the IC50 (Cholinesterase) was “Nd(Insoluble)”.

`N#CC1=C(NC(=O)CN2CCOCC2)Oc2c(c(=O)oc3ccccc23)C1c1ccccc1` (configuration not stated) showed a Ratio IC50 [3] of 3.7, an IC50 (Acetylcholinesterase [1]; read-out: IC50) of 23.9 µM and an IC50 (Cholinesterase; read-out: IC50) of 88.4 µM.

For `COc1ccc(C2C(C#N)=C(NC(=O)CN3CCN(c4ccccc4)CC3)Oc3c2c(=O)oc2ccccc32)c(OC)c1` (configuration not stated), the IC50 (Acetylcholinesterase [1]; read-out: IC50) was 31.4 µM and the IC50 (Cholinesterase; read-out: IC50) was > 100 µM.
